Here are results for one molecule from US7153494B2, “Dibenzoylmethane sunscreen compositions photostabilized with amphiphilic block copolymers” (L'Oreal, priority 2002, dated 2006).

The series is described as follows: Photostability of oily Parsol 1789/block copolymer mixture as a thin coat on a glass plate, xenon lamp irradiation, absorption spectrophotometry. To be noted: mixture with Tegomer SE-1010; thin coat about 10 microns on glass plate, in presence of oxygen; UV-A 22 J/cm^2, 20 minutes. Format: physicochemical. On the procedure:
The Parsol® 1789 was dispersed in the Tegomer SE-1010 with heating at 40° C. for 60 minutes. The mixture was allowed to cool to room temperature. The oily mixture was ready for use.
The oily mixture was evaluated in the form of a thin coat of about 10 microns deposited on a glass plate (microscope slide), in the presence of oxygen.
An irradiation was then performed, using an Ostram-Centra Uvimeter equipped with a xenon lamp, under the following conditions: • Energy of the UV-A lamp: 22 J/cm^2 • Irradiation time of the simulator=20 minutes
These conditions correspond to about one hour of solar UV-A sunshine.
The photodegradation was monitored by absorption spectrophotometry. The following results were obtained: • 1) The mixture was able to form a film and the quality of the film was not impaired by the irradiation. • 2) 100% of the Parsol® 1789 was recovered after this exposure.

On to `COc1ccc(C(=O)CC(=O)c2ccc(C(C)(C)C)cc2)cc1` [Parsol® 1789, 4-(tert-butyl)-4′-methoxydibenzoylmethane], for which the “Parsol 1789 recovered after exposure” value came out at 100%.
